{"source": "patent US20230085307A1", "about": "“PYRIDAZINONE COMPOUND AND HERBICIDE” (NISSAN CHEMICAL CORPORATION, priority 2019, published 2023)", "key": {"green foxtail": {"tested_on": "green foxtail", "assay": "Test Example 5: herbicidal effect by foliage application, plastic box (Table 20, symbol G)", "format": "in vivo, green foxtail (Setaria viridis)", "details": "foliage application, AAH 320 g/ha, three weeks after application", "summary_of_the_method": "(§1)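 Plants sown in sterilized diluvial soil and grown 14 days in a greenhouse at 25° C to 30° C, then sprayed on the foliage with the compound's emulsion diluted in water to a predetermined herbicide amount. Injury to weeds and crops scored three weeks after application on a visual rating scale.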"}, "chickweed": {"tested_on": "chickweed", "assay": "Test Example 5: herbicidal effect by foliage application, plastic box (Table 20, symbol P)", "format": "in vivo, common chickweed (Stellaria media)", "details": "foliage application, AAH 320 g/ha, three weeks after application", "summary_of_the_method": "as §1"}, "barnyard grass": {"tested_on": "barnyard grass", "assay": "Test Example 5: herbicidal effect by foliage application, plastic box (Table 20, symbol H)", "format": "in vivo, barnyard grass (Echinochloa crus-galli)", "details": "foliage application, AAH 320 g/ha, three weeks after application", "summary_of_the_method": "as §1"}, "persian speedwell [1]": {"tested_on": "persian speedwell", "assay": "Test Example 4: herbicidal effect by soil treatment (Table 19, symbol R)", "format": "in vivo, Persian speedwell (Veronica persica)", "details": "AAH 320 g/ha", "summary_of_the_method": "(§2)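 Seeds were sown in sterilized diluvial soil and covered with about 1.5 cm of soil. An emulsion formulation diluted with water to a predetermined herbicide amount was sprayed evenly onto the soil surface. Plants grew in a greenhouse at 25° C. to 30° C., and the effect was scored three weeks after application using criteria from an earlier test.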"}, "redroot pigweed": {"tested_on": "redroot pigweed", "assay": "Test Example 5: herbicidal effect by foliage application, plastic box (Table 20, symbol N)", "format": "in vivo, redroot pigweed (Amaranthus retroflexus)", "details": "foliage application, AAH 320 g/ha, three weeks after application", "summary_of_the_method": "as §1"}, "rice flat sedge": {"tested_on": "rice flat sedge", "assay": "Test Example 3: herbicidal effect by foliage application, Wagner pot (Table 18, symbol E)", "format": "in vivo, rice flat sedge (Cyperus iria)", "details": "320 g/ha", "summary_of_the_method": "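Plants were sown in alluvial soil held under 0.1–0.5 cm standing water and grown 14 days in a greenhouse at 25–30 °C. An emulsifiable formulation, water-diluted to the set dose, was then sprayed onto the foliage, and effects were scored three weeks later using previously defined criteria.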"}, "oval-leafed pondweed [2]": {"tested_on": "oval-leafed pondweed", "assay": "Test Example 2: herbicidal activity, application during weed generation under submerged conditions (Table 17, symbol C)", "format": "in vivo, oval-leafed pondweed (Monochoria vaginalis)", "details": "AAH 320 g/ha; application during weed generation, submerged conditions", "summary_of_the_method": "(§3)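 Alluvial soil in Wagner pots was flooded to 4 cm depth and sown with the three weeds together; pots were kept in a greenhouse at 25° C. to 30° C. At the one to two leaf stage, an emulsion formulation diluted in water to a set rate went onto the water surface; scored three weeks later.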"}, "Italian ryegrass": {"tested_on": "Italian ryegrass", "assay": "Test Example 4: herbicidal effect by soil treatment (Table 19, symbol K)", "format": "in vivo, Italian ryegrass (Lolium multiflorum)", "details": "AAH 320 g/ha", "summary_of_the_method": "as §2"}, "velvetleaf": {"tested_on": "velvetleaf", "assay": "Test Example 5: herbicidal effect by foliage application, plastic box (Table 20, symbol M)", "format": "in vivo, velvetleaf (Abutilon theophrasti)", "details": "foliage application, AAH 320 g/ha, three weeks after application", "summary_of_the_method": "as §1"}, "Japanese bulrush": {"tested_on": "Japanese bulrush", "assay": "Test Example 2: herbicidal activity, application during weed generation under submerged conditions (Table 17, symbol B)", "format": "in vivo, Japanese bulrush (Schoenoplectus juncoides)", "details": "AAH 320 g/ha; application during weed generation, submerged conditions", "summary_of_the_method": "as §3"}, "oval-leafed pondweed [3]": {"tested_on": "oval-leafed pondweed", "assay": "Test Example 1: herbicidal activity, application before weed generation under submerged conditions (Table 16, symbol C)", "format": "in vivo, oval-leafed pondweed (Monochoria vaginalis)", "details": "320 g/ha applied herbicide", "summary_of_the_method": "(§4)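 Submerged Wagner pots (alluvial soil, 4 cm water) sown with weed seeds and planted with 2.5-leaf rice seedlings; emulsifiable concentrate diluted in water applied to water surface on sowing day. Held in greenhouse at 25-30 °C; injury scored 0-5 by herbicidal rate after three weeks.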"}, "windgrass": {"tested_on": "windgrass", "assay": "Test Example 4: herbicidal effect by soil treatment (Table 19, symbol L)", "format": "in vivo, windgrass (Apera spica-venti)", "details": "AAH 320 g/ha", "summary_of_the_method": "as §2"}, "southern crabgrass": {"tested_on": "southern crabgrass", "assay": "Test Example 5: herbicidal effect by foliage application, plastic box (Table 20, symbol F)", "format": "in vivo, southern crabgrass (Digitaria ciliaris)", "details": "foliage application, AAH 320 g/ha, three weeks after application", "summary_of_the_method": "as §1"}, "persian speedwell [4]": {"tested_on": "persian speedwell", "assay": "Test Example 5: herbicidal effect by foliage application, plastic box (Table 20, symbol R)", "format": "in vivo, Persian speedwell (Veronica persica)", "details": "foliage application, AAH 320 g/ha, three weeks after application", "summary_of_the_method": "as §1"}, "wild oat": {"tested_on": "wild oat", "assay": "Test Example 4: herbicidal effect by soil treatment (Table 19, symbol I)", "format": "in vivo, wild oat (Avena fatua)", "details": "AAH 320 g/ha", "summary_of_the_method": "as §2"}, "late watergrass": {"tested_on": "late watergrass", "assay": "Test Example 1: herbicidal activity, application before weed generation under submerged conditions (Table 16, symbol A)", "format": "in vivo, late watergrass (Echinochloa oryzicola)", "details": "320 g/ha applied herbicide", "summary_of_the_method": "as §4"}}}
{"smiles": "Cc1nn(C)c(=O)c(-c2c(-c3ccc([N+](=O)[O-])cc3)sc3ccccc23)c1O", "note": "[1-151]", "values": [{"measurement": "G: green foxtail, herbicidal effect", "setting": "green foxtail", "value": "3 (Herbicidal rate of 40% or more and less than 70%)"}, {"measurement": "P: chickweed, herbicidal effect", "setting": "chickweed", "value": "5 (Herbicidal rate of 90% or more (almost completely withered))"}, {"measurement": "H: barnyard grass, herbicidal effect", "setting": "barnyard grass", "value": "3 (Herbicidal rate of 40% or more and less than 70%)"}, {"measurement": "R: persian speedwell, herbicidal effect rating", "setting": "persian speedwell [1]", "value": "5 (Herbicidal rate of 90% or more (almost completely withered))"}, {"measurement": "N: redroot pigweed, herbicidal effect", "setting": "redroot pigweed", "value": "5 (Herbicidal rate of 90% or more (almost completely withered))"}, {"measurement": "herbicidal effect on E (rice flat sedge), rating 0-5", "setting": "rice flat sedge", "value": "5 (Herbicidal rate of 90% or more (almost completely withered))"}, {"measurement": "herbicidal effect rating, C: oval-leafed pondweed", "setting": "oval-leafed pondweed [2]", "value": "0 (Herbicidal rate of 5% or less (almost no effect))"}, {"measurement": "K: Italian ryegrass, herbicidal effect rating", "setting": "Italian ryegrass", "value": "3 (Herbicidal rate of 40% or more and less than 70%)"}, {"measurement": "M: velvetleaf, herbicidal effect", "setting": "velvetleaf", "value": "5 (Herbicidal rate of 90% or more (almost completely withered))"}, {"measurement": "herbicidal effect rating, B: Japanese bulrush", "setting": "Japanese bulrush", "value": "2 (Herbicidal rate of 20% or more and less than 40%)"}, {"measurement": "Herbicidal effect on C: oval-leafed pondweed (grade 0-5)", "setting": "oval-leafed pondweed [3]", "value": "3 (Herbicidal rate of 40% or more and less than 70%)"}, {"measurement": "L: windgrass, herbicidal effect rating", "setting": "windgrass", "value": "0 (Herbicidal rate of 5% or less (almost no effect))"}, {"measurement": "F: southern crabgrass, herbicidal effect", "setting": "southern crabgrass", "value": "4 (Herbicidal rate of 70% or more and less than 90%)"}, {"measurement": "R: persian speedwell, herbicidal effect", "setting": "persian speedwell [4]", "value": "5 (Herbicidal rate of 90% or more (almost completely withered))"}, {"measurement": "I: wild oat, herbicidal effect rating", "setting": "wild oat", "value": "0 (Herbicidal rate of 5% or less (almost no effect))"}, {"measurement": "Herbicidal effect on A: late watergrass (grade 0-5)", "setting": "late watergrass", "value": "3 (Herbicidal rate of 40% or more and less than 70%)"}]}
{"smiles": "CCCC(=O)Oc1c(C)nn(C)c(=O)c1-c1c(-c2ccc([N+](=O)[O-])cc2)sc2ccccc12", "note": "[1-152]", "values": [{"measurement": "G: green foxtail, herbicidal effect", "setting": "green foxtail", "value": "5 (Herbicidal rate of 90% or more (almost completely withered))"}, {"measurement": "P: chickweed, herbicidal effect", "setting": "chickweed", "value": "5 (Herbicidal rate of 90% or more (almost completely withered))"}, {"measurement": "H: barnyard grass, herbicidal effect", "setting": "barnyard grass", "value": "4 (Herbicidal rate of 70% or more and less than 90%)"}, {"measurement": "R: persian speedwell, herbicidal effect rating", "setting": "persian speedwell [1]", "value": "3 (Herbicidal rate of 40% or more and less than 70%)"}, {"measurement": "N: redroot pigweed, herbicidal effect", "setting": "redroot pigweed", "value": "5 (Herbicidal rate of 90% or more (almost completely withered))"}, {"measurement": "herbicidal effect on E (rice flat sedge), rating 0-5", "setting": "rice flat sedge", "value": "3 (Herbicidal rate of 40% or more and less than 70%)"}, {"measurement": "herbicidal effect rating, C: oval-leafed pondweed", "setting": "oval-leafed pondweed [2]", "value": "0 (Herbicidal rate of 5% or less (almost no effect))"}, {"measurement": "K: Italian ryegrass, herbicidal effect rating", "setting": "Italian ryegrass", "value": "0 (Herbicidal rate of 5% or less (almost no effect))"}, {"measurement": "M: velvetleaf, herbicidal effect", "setting": "velvetleaf", "value": "5 (Herbicidal rate of 90% or more (almost completely withered))"}, {"measurement": "herbicidal effect rating, B: Japanese bulrush", "setting": "Japanese bulrush", "value": "3 (Herbicidal rate of 40% or more and less than 70%)"}, {"measurement": "Herbicidal effect on C: oval-leafed pondweed (grade 0-5)", "setting": "oval-leafed pondweed [3]", "value": "5 (Herbicidal rate of 90% or more (almost completely withered))"}, {"measurement": "L: windgrass, herbicidal effect rating", "setting": "windgrass", "value": "0 (Herbicidal rate of 5% or less (almost no effect))"}, {"measurement": "F: southern crabgrass, herbicidal effect", "setting": "southern crabgrass", "value": "4 (Herbicidal rate of 70% or more and less than 90%)"}, {"measurement": "R: persian speedwell, herbicidal effect", "setting": "persian speedwell [4]", "value": "5 (Herbicidal rate of 90% or more (almost completely withered))"}, {"measurement": "I: wild oat, herbicidal effect rating", "setting": "wild oat", "value": "0 (Herbicidal rate of 5% or less (almost no effect))"}, {"measurement": "Herbicidal effect on A: late watergrass (grade 0-5)", "setting": "late watergrass", "value": "4 (Herbicidal rate of 70% or more and less than 90%)"}]}
